Biological target: Hematopoietic prostaglandin D synthase (Homo sapiens, UniProt O60760)
Test: In Vitro GST Activity Assay
Settings: pH 7.2; 22 °C
Protocol: The PGDS glutathione-S-transferase (GST) activity was measured by using MonoChloroBimane (MCB) as a chromogenic substrate. The assay was run at 384-well format in reaction buffer containing enzyme and test compound. Then MCB and GSH were added for further incubation. After reaction was stopped, the fluorescence was measured (excitation: 390 nm; emission: 478 nm).

Chain of Hematopoietic prostaglandin D synthase (O60760 whole entry): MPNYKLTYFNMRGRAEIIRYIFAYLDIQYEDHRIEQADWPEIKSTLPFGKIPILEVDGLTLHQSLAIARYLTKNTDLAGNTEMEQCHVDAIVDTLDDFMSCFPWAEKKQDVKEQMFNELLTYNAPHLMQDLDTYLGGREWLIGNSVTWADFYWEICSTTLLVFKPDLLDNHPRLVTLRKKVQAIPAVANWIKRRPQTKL

An IC50 of 3.8 µM was found for `COc1ccc(-c2cc3c(nn2)-c2ccccc2C3=O)cc1` in this work.
An IC50 of 45 µM was found for `CCOC(=O)c1cc(OC)c(-c2ccccc2)nn1` [ethyl 5-methoxy-6-phenylpyridazine-3-carboxylate] in this work.

Reference: BindingDB's records for doi:10.1021/jm701509k (Astrazeneca, 2008)
